For 29 compounds, IC50 results are on record in patent publication US5753664A, “Heterocyclic compounds, their production and use” (Takeda Chemical Industries, Ltd., priority 1995, dated 1998).

Counter-ions that a name gives are not always drawn.

The subject of the first assay is Prostate carcinoma cell line PC-3. The experiment in a line: In vitro prostate carcinoma cell proliferation inhibition assay (MTT). The assay is classed as cell-based, human. The conditions noted are these: Homo sapiens, 72 h, read-out: IC50 PC-3. As to the method:
In vitro prostate carcinoma cell proliferation inhibition assay
Prostate carcinoma cell line PC-3 cells were suspended in Ham's F-12K medium (Flow Laboratories or Dainippon Pharmaceutical Co,. Ltd) supplemented with 10% fetal calf serum, and seeded in a 96-well microtiter plate (5000 cells/50 or 75 μl/well). The plate was then incubated in a 5% CO2 incubator at 37° C. On the following day, a 3-fold dilution series with the medium with serum of the test compound in N,N-dimethylformamide (DMF) (50 or 25 μl/well) were added (final volume […]) and the plate was incubated for another 3 days. Following addition of a thiazolyl-tetrazolium (MTT) solution, absorbance based on the viable cell number was determined "Tada et al., Journal of Immunological Methods, 93, 157 (1986)". With the estimated cell number in the control group to which the test compound solution was not added being taken as 100%, the percentage of the estimated cell number in each test group was determined and the concentration (IC50 value) of the test compound which was required for 50% inhibition of the estimated viable cell number in the control group was calculated.
For the compound `Cc1cccc2nc(SCc3ccc(C(=O)c4ccc(OC(=O)N(C)C)cc4)cc3)n(C)c(=O)c12` [Example 228, 3,5-Dimethyl-2-[4-[4-(N,N-dimethylcarbamoyloxy)-benzoyl]benzylthio]-4(3H)-quinazolinone], the IC50 is 7 nM.

Staying with this assay, now noted: Homo sapiens, 72 h; PC-3, 3 days incubation, MTT; read-out: IC50 PC-3.
In the case of `Cc1cn(C)c2nc(SCc3ccc(C(=O)c4ccc(F)cc4)cc3)n(C)c(=O)c12` [57(A), 2-[4-(4-Fluorobenzoyl)benzyl]thio-3,5,7-trimethyl-7H-pyrrolo[2,3-d]pyrimidin-4(3H)-one], the IC50 came to 5 nM.

Consider `Cc1cn(C)c2nc(SC(C)c3ccc(C(=O)c4ccc(F)cc4)cc3)n(C)c(=O)c12` (centres unmarked) [57(B), 2-[1-[4-(4-Fluorobenzoyl)phenyl]ethyl]thio-3,5,7-trimethyl-7H-pyrrolo[2,3-d]pyrimidin-4(3H)-one], for which the IC50 was found to be 9 nM.

In the case of `CC(C)(C)n1ncc2c(cnn2Cc2ccc(C(=O)c3ccc(Cl)cc3)cc2)c1=O` [62(A), 5-Tert-butyl-1-[4-(4-chlorobenzoyl)benzyl]-1H-pyrazolo[3,4-d]pyridazin-4(5H)-one], the IC50 is less than 1.52 nM. Still for that read-out and setting: under `Cc1nn(Cc2ccc(C(=O)c3ccc(Cl)cc3)cc2)c2cnn(C)c(=O)c12` [84(A), 1-[4-(4-Chlorobenzoyl)benzyl]-3,5-dimethyl-1H-pyrazolo [3,4-d]pyridazin-4(5H)-one] stands 2 nM; under `CCn1c(SC)nc2c(cnn2Cc2ccc(C(=O)c3ccc(Cl)cc3)cc2)c1=O` [129(A)], less than 1.52 nM. On the same count and under the same terms, under `CCn1c(SC)nc2c(cnn2Cc2ccc(C(=O)c3ccc(OC)cc3)cc2)c1=O` [132(A), 5-Ethyl-1-[4-(4-methoxybenzoyl)benzyl]-6-methylthio-1,5-dihydro-4H-pyrazolo[3,4-d]pyrimidin-4-one] stands 2 nM; under `Cn1ncc2c(c(Cl)c(Cl)n2Cc2ccc(C(=O)c3ccc(Cl)cc3)cc2)c1=O` [Example 37, 1-[4-(4-Chlorobenzoyl)benzyl]-2,3-dichloro-5-methyl-1H-pyrrolo[2,3-d]pyridazin-4(5H)-one], 6 nM; under `Cc1c[nH]c2nc(SCc3ccc(C(=O)c4ccc(Cl)cc4)cc3)[nH]c(=O)c12` [Example 50, 2-[4-(4-Chlorobenzoyl)benzyl]thio-5-methyl-7H-pyrrolo[2,3-d]pyrimidin-4(3H)-one], 9 nM. Take `Cc1cn(C)c2nc(SCc3ccc(C(=O)c4ccc(Cl)cc4)cc3)n(C)c(=O)c12` [Example 55, 2-[4-(4-Chlorobenzoyl)benzyl]thio-3,5,7-trimethyl-7H-pyrrolo[2,3-d]pyrimidin-4(3H)-one]: the IC50 was less than 1.52 nM.

For `Cn1ncc2c(c(Cl)c(Cl)n2Cc2ccc(C(=O)c3ccc(F)cc3)cc2)c1=O` [Example 66, 1-[4-(4-Fluorobenzoyl)benzyl]-2,3-dichloro-5-methyl-1H-pyrrolo [2,3-d]pyridazin-4(5H)-one], the IC50 worked out at 8 nM. Still for that read-out and setting: under `Cc1cn(Cc2ccc(C(=O)c3ccc(Cl)cc3)cc2)c2ncn(C)c(=O)c12` [Example 94, 7-[4-(4-Chlorobenzoyl)benzyl]-3,5-dimethyl-7H-pyrrolo [2,3-d]pyrimidin-4(3H)-one] stands 2 nM; under `CCn1cnc2c(c(C)cn2Cc2ccc(C(=O)c3ccc(Cl)cc3)cc2)c1=O` [Example 96, 7-[4-(4-Chlorobenzoyl)benzyl]-3-ethyl-5-methyl-7H-pyrrolo [2,3-d]pyrimidin-4(3H)-one], less than 1.52 nM.

Regarding `Cc1c(OCc2ccc(C(=O)c3ccc(C(F)(F)F)cc3)cc2)nc2ccccn2c1=O` [Example 124, 3-Methyl-2-[4-(4-trifluoromethylbenzoyl)benzyloxy]pyrido[1,2-a]pyrimidin-4-one], the IC50 is 8 nM.

For `Cc1cccc2nc(SCc3ccc(C(=O)c4ccc(CSc5nnnn5CCN(C)C)cc4)cc3)n(C)c(=O)c12` [Example 138, 3,5-Dimethyl-2-[4-[4-[[1-(2-dimethylaminoethyl)-1H-tetrazol-5-yl]thiomethyl]benzoyl]benzylthio]-4(3H)-quinazolinone], the IC50 is less than 1.52 nM. On the same count and under the same terms, under `Cc1cccc2nc(SCc3ccc(C(=O)c4ccc(CN5CCN(C)CC5)cc4)cc3)n(C)c(=O)c12` [Example 144, 3,5-Dimethyl-2-[4-[4-(4-methylpiperazinylmethyl)benzoyl]benzylthio]-4(3H)-quinazolinone] stands less than 1.52 nM. Same read-out and setting: under `Cc1csc2nc(SCc3ccc(C(=O)c4ccc(OCCN5CCOCC5)cc4)cc3)n(C)c(=O)c12` [Example 148, 3,5-Dimethyl-2-[4-[4-(2-morpholinoethoxy)benzoyl]-benzylthio]thieno[2,3-d]pyrimidin-4(3H)-one] stands less than 1.52 nM; under `Cn1c(SCc2ccc(C(=O)c3ccc(N4CCC(N5CCCCC5)CC4)nc3)cc2)nc2ccsc2c1=O` [Example 158, 3-Methyl-2-[4-[6-(4-piperidinopiperidinyl)nicotinoyl]benzylthio]thieno[3,2-d]pyrimidin-4(3H)-one hydrochloride], 4.5 nM.

For `CCc1c(C)nc2n(Cc3ccc(C(=O)c4ccc(Cl)cc4)cc3)ccn2c1=O` [Example 169, 1-[4-(4-Chlorobenzoyl)benzyl]-6-ethyl-7-methylimidazo[1,2-a]pyrimidin-5(1H)-one], the IC50 was less than 1.52 nM.

Regarding `Cc1nc2n(Cc3ccc(C(=O)c4ccc(Cl)cc4)cc3)ccn2c(=O)c1C(C)C` [Example 181, 1-[4-(4-Chlorobenzoyl)benzyl]-6-isopropyl-7-methylimidazo[1,2-a]pyrimidin-5(1H)-one], the IC50 was determined as 3 nM. For `Cc1cccc2nc(SCc3ccc(C(=O)c4ccc(C(=O)N5CCN(C)CC5)cc4)cc3)n(C)c(=O)c12` [Example 184, 3,5-Dimethyl-2-[4-[4-(4-methylpiperazinocarbonyl)benzoyl]benzyl]thio-4(3H)-quinazolinone], the IC50 was less than 1.52 nM. As for `Cc1cccc2nc(SCc3ccc(C(=O)c4ccc(C(=O)N5CCC(N6CCCCC6)CC5)cc4)cc3)n(C)c(=O)c12` [Example 193, 3,5-Dimethyl-2-[4-[4-(4-piperidinopiperidinocarbonyl)benzoyl]benzyl]thio-4(3H)-quinazolinone], the IC50 was 2 nM.

In the case of `CCc1cccc2nc(SCc3ccc(C(=O)c4ccc(Cl)cc4)cc3)n(C)c(=O)c12` [Example 214, 2-[4-(4-Chlorobenzoyl)benzyl]thio-5-ethyl-3-methyl-4(3H)-quinazolinone], the IC50 is 5.2 nM. With `Cc1cccc2nc(SCc3ccc(C(=O)c4ccc(OCC(=O)c5ccccc5)cc4)cc3)n(C)c(=O)c12` [Example 234, 3,5-Dimethyl-2-[4-(4-phenacyloxybenzoyl)benzylthio]-4-(3H)-quinazolinone], the IC50 turned out to be 7 nM.

`CCn1c(SC)nc2c(ccn2Cc2ccc(C(=O)c3ccc(Cl)cc3)cc2)c1=O` [Example 252, 7-[4-(4-Chlorobenzoyl)benzyl]-3-ethyl-2-methylthio-7H-pyrrolo[2,3-d]pyrimidin-4-one]: the IC50 was less than 1.52 nM. On the same count and under the same terms, under `O=C(c1ccc(Cn2ccn3c(=O)c4c(nc23)CCCC4)cc1)c1ccc(C(F)(F)F)cc1` [Example 329, 1-[4-(4-Trifluorobenzoyl)benzyl]-6,7,8,9-tetrahydroimidazo[2,1-b]quinazolin-5(1H)-one] stands 2.6 nM; under `Cc1c(SCc2ccc(C(=O)c3ccc(C(F)(F)F)cc3)cc2)nc2n(c1=O)CCCS2` [Example 365, 3,4-Dihydro-7-methyl-8-(4-(4-trifluoromethylbenzoyl)benzylthio)-2H,6H-pyrimido[2,1-b][1,4]thiazin-6-one], 6.2 nM; under `Cc1ccc(C(=O)c2ccc(COc3nc4n(c(=O)c3C)CCCS4)cc2)cc1` [Example 406, 7-Methyl-8-[4-(4-methylbenzoyl)benzyloxy]-3,4-dihydro-2H,6H-pyrimido[2,1-b][1,3]thiazin-6-one], 0.94 nM.

The assay is the same for the next values; noted with them: PC-3, 3 days incubation, MTT; read-out: IC50 PC-3.
Consider `CCOP(=O)(OCC)Oc1ccc(C(=O)c2ccc(CSc3nc4cccc(C)c4c(=O)n3C)cc2)cc1` [Example 217, 2-[4-(4-Diethylphosphonooxybenzoyl)benzylthio]-3,5-dimethyl-4(3H)-quinazolinone], for which the IC50 is less than 1.52 nM.
